Data taken from US20140356393A1, “COMPOSITION FOR TREATMENT OR PREVENTION OF HYPERLIPIDEMIA, CONTAINING WATER EXTRACTS OF LAETIPORUS SULPHUREUS” (POSTECH ACADEMY-INDUSTRY FOUNDATION, priority 2011, published 2014).

Assays:
cholesterol absorption = assay: Amount of cholesterol absorption from the digestive tract into blood; assay type: in vivo; conditions: male Balb/c mouse, oral 3H-cholesterol oleate, plasma radioactivity 6 hours after administration, relative to control = 1; FIG. 3
Procedure: Cholesterol oleate (Amersham, 100 μCi/mL) radiolabeled with ^3H was mixed with 1% (w/v) sodium carboxylmethyl cellulose (CMC-Na), 1% (v/v) Tween 80, and a non-labeled cholesterol oleate, and then 0.1 mL of the mixture was forcibly administered into each mouse through an oral zonde so that 1 μCi could be delivered to each mouse. Here, the mouse in the control group (an 8-week old male Balb/c with body weight of 25 g) was treated with 400 μg of Orlistat (20 mg/kg), which has an inhibitory effect against cholesterol absorption, and the mouse in the experimental group (an 8-week old male Balb/c with body weight of 25 g) was treated with […] of Laetiporus sulphureus prepared in the Example after concentrating it into 0.1 mL. Six hours after the administration, blood samples were collected from the mice, and plasma was obtained by centrifuging the blood at 40° C. at the rate of 14000 rpm, and the radioactive dose was measured by a liquid scintillator (Beta counter, Beckman LS1801). The Control group was not treated with anything that may inhibit the absorption of cholesterol. The amount of cholesterol absorption was determined as a relative value by dividing the radioactive dose of each group into the radioactive dose of the control group, in which the radioactive dose of the control group was set at ‘1’.

lipid absorption = assay: Amount of triglyceride (lipid) absorption from the digestive tract into blood; assay type: in vivo; conditions: male Balb/c mouse, oral 14C-triolein, plasma radioactivity 6 hours after administration, relative to control = 1; FIG. 4
Procedure: Triolein (Amersham, 100 μCi/mL) radiolabeled with ^14C was mixed with 1% (w/v) sodium carboxylmethyl cellulose (CMC-Na) and 1% (v/v) Tween 80, and then 0.1 mL of the mixture was forcibly administered into each mouse through an oral zonde so that 1 μCi could be delivered to each mouse. Here, the mouse in the control group (an 8-week old male Balb/c with body weight of 25 g) was treated with 400 μg of Orlistat (20 mg/kg), which is used as an obesity treatment, and the mouse in the experimental group (an 8-week old male Balb/c with body weight of 25 g) was treated with 0.5 mL of the water extract (50 mg/mL) of Laetiporus sulphureus prepared in the Example after concentrating it into 0.1 mL. Six hours after the administration, blood samples were collected from the mice, and plasma was obtained by centrifuging the blood at 40° C. at the rate of 14000 rpm, and the radioactive dose was measured by a liquid scintillator (Beta counter, Beckman LS1801). The control group was not treated with anything. The amount of lipid absorption was determined as a relative value by dividing the radioactive dose of each group into the radioactive dose of the control group, in which the radioactive dose of the control group was set at ‘1’.

For `CCCCCCCCCCC[C@@H](C[C@@H]1OC(=O)[C@H]1CCCCCC)OC(=O)[C@H](CC(C)C)NC=O` [Orlistat], the “inhibitory effect upon cholesterol absorption” value (cholesterol absorption) was “significant inhibitory effect” and the “inhibitory effect upon lipid absorption” value (lipid absorption) was “significant inhibitory effect”.
